Laboratory results from publication PMC12737022, “Evaluations of Sex Differences in Dosimetry in Rats Following Perfluorohexanesulfonamide (PFHxSA) Oral Exposure” (Toxics, 2025).
Values joined by “and” are separate entries in the source; they are usually repeats but may differ in a detail not shown here. Equal entries are not always repeated. Where two headings read alike, the source gives them in different places.

How the values were obtained:
[1] = Ultracentrifugation plasma protein binding assay, rat plasma; type: in vitro ADME; conditions: for fraction unbound at 1 h, 10 µM: both sexes, SD
Protocol: Human and rat plasma were evaluated for plasma protein binding of PFHxSA and PFHxS using ultracentrifugation. Data generated in human plasma were obtained from an earlier study; for this study, data were generated in rat plasma following the same protocol as described by Smeltz et al.. SD rat plasma (pooled, mixed sex) was obtained from a commercial vendor (BioIVT, Westbury, NY, USA). Briefly, PFHxSA and PFHxS were added to the plasma to achieve a final assay concentration of 10 µM. Following a 1 h 37 °C incubation, 1 mL aliquots from each plasma solution were drawn in triplicate and transferred to polycarbonate ultracentrifuge tubes. These samples underwent ultracentrifugation (Beckman OptimaMax; Beckman Coulter Inc., Indianapolis, IN, USA) at 850,000× g for 4 h at 37 °C; after completion, the aqueous fraction (AF) was collected by transferring the supernatant to a new tube. Two sets of samples of the original PFAS-spiked whole plasma were also collected after a 1 h or a 5 h incubation at 37 °C. All samples were combined with 3 volumes of ice-cold ACN containing relevant internal standard, vigorously mixed, then centrifuged at 12,000× g for 10 min at 4 °C. Supernatants were collected and then stored at <−70 °C until analysis.
Targeted, quantitative analysis of in vitro hepatocyte metabolic stability and plasma protein binding assay samples was conducted on a Waters (Milford, MA, USA) Xevo-TQS micro ultra-high-performance liquid chromatography tandem mass spectrometry system (UPLC-MS/MS), modified with a PFAS analysis kit. Samples were analyzed in negative ion mode with UniSpray ionization. Samples were analyzed in triplicate, with a reference compound included to evaluate assay performance. A CORTECS T3 column (Waters; 3 mm × 100 mm, 2.7 µm) was used for chromatographic separation with a flow rate of 0.6 mL/min and a temperature of 55 °C. Gradient elution was used with mobile phase A (95:5 H2O/ACN) and mobile phase B (95:5 ACN/H2O), each with 2.5 mM of ammonium acetate added. More details are provided in Smeltz et al..
Intrinsic hepatic clearance (Clint) and fraction unbound in plasma (fup) were calculated from the experimental point estimate data as described in Dobreniecki et al.. Steady-state concentrations (Css) were derived based on zero-order uptake of an assumed daily dose from the gut (assuming 100% intestinal bioavailability) but considering hepatic clearance and non-metabolic renal clearance. Renal clearance was calculated using the glomerular filtration rate (a species-dependent constant) and the fraction unbound in blood (fub), estimated by adjusting the experimental fup for blood/plasma partitioning. The Css calculations, along with underlying species-specific physiologic scalars, are detailed in SI Texts S6 and S7.

[2] = Liver-to-plasma partitioning (Kp); type: in vivo, rat; conditions: for Kp at 120 h: po
Protocol: Liver-to-plasma partitioning (Kp) for PFHxSA was assessed for each sex (SI Text S8, Table 6). There were no sex differences in PFHxSA Kp values. […] Refer to SI Table S15 for Kp results for individual rats. […]
Text S8 Liver-to-Plasma Partitioning Coefficient Calculation
Concentrations (µM) of PFHxSA in liver and plasma were used to calculate experimental liver-to-
plasma (Kp) partitioning values for both sexes across all dose levels using Equation E.
(E) K ௣ = Concentration௢௥௚௔௡Concentration௣௟௔௦௠௔

[3] = tested on: cytochrome P450 (CYP450) hepatic metabolism enzyme isoforms 3A2, 4A1, and 2J4; design: method as in Mutlu et al. [55]; conditions: ref Mutlu et al. [55], cited from earlier work
[4] = blood (estimated from fup in plasma), Rat, fup adjusted for blood/plasma partitioning, read-out: fub (fraction unbound in blood)
[5] = Rat plasma, 10 µM, ultracentrifugation, read-out: fup (fraction unbound in plasma)

For O=S(=O)(O)C(F)(F)C(F)(F)C(F)(F)C(F)(F)C(F)(F)C(F)(F)F [PFHxS, perfluorohexane sulfonic acid], which fraction unbound at 1 h, 10 µM [1, 4] is on record?
Its fraction unbound at 1 h, 10 µM is 0.0014.

What about the fraction unbound at 1 h, 10 µM [1, 5] of the same compound?
The fraction unbound at 1 h, 10 µM was 0.0008.

What about the “Plasma binding of PFHxS higher than PFHxSA” value ([1]; rat plasma) of the same compound?
The value was 25%.

With NS(=O)(=O)C(F)(F)C(F)(F)C(F)(F)C(F)(F)C(F)(F)C(F)(F)F [PFHxSA, Perfluorohexanesulfonamide] as the compound, how does the fraction unbound at 1 h, 10 µM [1, 4] read?
Its fraction unbound at 1 h, 10 µM is 0.0018.

What about the fraction unbound at 1 h, 10 µM [1, 5] of the same compound?
The fraction unbound at 1 h, 10 µM was 0.001.

What about the “Female Partition Coefficient (Kp), liver-plasma” value (shortened to “Female Partition Coefficient”) ([2]; PFHxSA 0.1 mg/kg/day oral 5 days, female, individual rats) of the same compound?
Its value is 0.516 and 0.491 and 0.293 and 0.378.

What about the “Male Partition Coefficient (Kp), liver-plasma” value ([2]; PFHxSA 0.1 mg/kg/day oral 5 days, male, individual rats) of the same compound?
The value was 0.662 and 0.433 and 0.319 and 0.860 and 0.744.

And the “Female Partition Coefficient” value ([2]; PFHxSA 0.3 mg/kg/day oral 5 days, female, individual rats)?
Its value is 0.633 and 0.239 and 0.486 and 0.499 and 0.302.

And the “Male Partition Coefficient (Kp), liver-plasma” value ([2]; PFHxSA 0.3 mg/kg/day oral 5 days, male, individual rats)?
Its value is 0.215 and 0.362 and 0.134 and 0.315 and 0.255.

And the “Female Partition Coefficient” value ([2]; PFHxSA 1 mg/kg/day oral 5 days, female, individual rats)?
The value was 0.197 and 0.224 and 0.122 and 0.325.

What about the “Male Partition Coefficient (Kp), liver-plasma” value ([2]; PFHxSA 1 mg/kg/day oral 5 days, male, individual rats) of the same compound?
The value was 0.233 and 0.174 and 0.293 and 0.249.

What about the “Female Partition Coefficient” value ([2]; PFHxSA 3 mg/kg/day oral 5 days, female, individual rats) of the same compound?
Its value is 0.280 and 0.239 and 0.244.

What about the “Male Partition Coefficient (Kp), liver-plasma” value ([2]; PFHxSA 3 mg/kg/day oral 5 days, male, individual rats) of the same compound?
Its value is 0.193 and 0.153 and 0.235 and 0.105 and 0.244.

And the “Female Partition Coefficient” value ([2]; PFHxSA 10 mg/kg/day oral 5 days, female, individual rats)?
The value was 0.145 and 0.119 and 0.113 (2×).

And the “Male Partition Coefficient (Kp), liver-plasma” value ([2]; PFHxSA 10 mg/kg/day oral 5 days, male, individual rats)?
Its value is 0.249 and 0.178 and 0.194.

And the “Female Partition Coefficient” value ([2]; PFHxSA 30 mg/kg/day oral 5 days, female, individual rats)?
Its value is 0.134 and 0.142 and 0.162 and 0.147.

And the “Male Partition Coefficient (Kp), liver-plasma” value ([2]; PFHxSA 30 mg/kg/day oral 5 days, male, individual rats)?
The value was 0.142 (2×) and 0.145.

And the “Female Partition Coefficient” value ([2]; PFHxSA 100 mg/kg/day oral 5 days, female, individual rats)?
The value was 0.187 and 0.344 and 0.214 and 0.213.

What about the “Male Partition Coefficient (Kp), liver-plasma” value ([2]; PFHxSA 100 mg/kg/day oral 5 days, male, individual rats) of the same compound?
The value was 0.506 and 0.754 and 0.306 and 0.230 and 0.221.

And the Kp at 24 h ([2]; both sexes, Sprague Dawley (Crl:CD(SD)), rat, liver and plasma, oral, both sexes across all tested doses)?
The Kp at 24 h was 0.13 to 0.6.

And the Kp at 120 h ([2]; female, Sprague Dawley (Crl:CD(SD)), rat, liver and plasma, 0.1 mg/kg/day, PFHxSA 0.1 mg/kg/day oral 5 days, female, individual rats, read-out: Female Partition Coefficient (Kp), liver-plasma)?
The Kp at 120 h was 0.424.

What about the Kp at 120 h ([2]; female, Sprague Dawley (Crl:CD(SD)), rat, liver and plasma, 0.3 mg/kg/day, PFHxSA 0.3 mg/kg/day oral 5 days, female rats, mean ± SD, read-out: PFHxSA liver-to-plasma Kp, Female Rats) of the same compound?
Its Kp at 120 h is 0.431 ± 0.16.

And the Kp at 120 h ([2]; female, Sprague Dawley (Crl:CD(SD)), rat, liver and plasma, 1 mg/kg/day, PFHxSA 1 mg/kg/day oral 5 days, female rats, mean ± SD, read-out: PFHxSA liver-to-plasma Kp, Female Rats)?
Its Kp at 120 h is 0.21 ± 0.074.

And the Kp at 120 h ([2]; female, Sprague Dawley (Crl:CD(SD)), rat, liver and plasma, 3 mg/kg/day, PFHxSA 3 mg/kg/day oral 5 days, female rats, mean ± SD, read-out: PFHxSA liver-to-plasma Kp, Female Rats)?
Its Kp at 120 h is 0.222 ± 0.048.

And the Kp at 120 h ([2]; female, Sprague Dawley (Crl:CD(SD)), rat, liver and plasma, 3 mg/kg/day, PFHxSA 3 mg/kg/day oral 5 days, female, individual rats, read-out: Female Partition Coefficient (Kp), liver-plasma)?
Its Kp at 120 h is 0.158.

And the Kp at 120 h ([2]; female, Sprague Dawley (Crl:CD(SD)), rat, liver and plasma, 10 mg/kg/day, PFHxSA 10 mg/kg/day oral 5 days, female rats, mean ± SD, read-out: PFHxSA liver-to-plasma Kp, Female Rats)?
Its Kp at 120 h is 0.135 ± 0.03.

What about the Kp at 120 h ([2]; female, Sprague Dawley (Crl:CD(SD)), rat, liver and plasma, 10 mg/kg/day, PFHxSA 10 mg/kg/day oral 5 days, female, individual rats, read-out: Female Partition Coefficient (Kp), liver-plasma) of the same compound?
The Kp at 120 h was 0.183.

What about the Kp at 120 h ([2]; female, Sprague Dawley (Crl:CD(SD)), rat, liver and plasma, 30 mg/kg/day, PFHxSA 30 mg/kg/day oral 5 days, female rats, mean ± SD, read-out: PFHxSA liver-to-plasma Kp, Female Rats) of the same compound?
The Kp at 120 h was 0.148 ± 0.011.

And the Kp at 120 h ([2]; female, Sprague Dawley (Crl:CD(SD)), rat, liver and plasma, 30 mg/kg/day, PFHxSA 30 mg/kg/day oral 5 days, female, individual rats, read-out: Female Partition Coefficient (Kp), liver-plasma)?
Its Kp at 120 h is 0.154.

And the Kp at 120 h ([2]; female, Sprague Dawley (Crl:CD(SD)), rat, liver and plasma, 100 mg/kg/day, PFHxSA 100 mg/kg/day oral 5 days, female rats, mean ± SD, read-out: PFHxSA liver-to-plasma Kp, Female Rats)?
Its Kp at 120 h is 0.222 ± 0.072.

What about the Kp at 120 h ([2]; female, Sprague Dawley (Crl:CD(SD)), rat, liver/plasma, 0.1 mg/kg/day, PFHxSA 0.1 mg/kg/day oral 5 days, female rats, mean ± SD, read-out: PFHxSA liver-to-plasma Kp, Female Rats) of the same compound?
Its Kp at 120 h is 0.42 ± 0.09.

And the Kp at 120 h ([2]; male, Sprague Dawley (Crl:CD(SD)), rat, liver and plasma, 1 mg/kg/day, PFHxSA 1 mg/kg/day oral 5 days, male rats, mean ± SD, read-out: PFHxSA liver-to-plasma Kp, Male Rats)?
The Kp at 120 h was 0.223 ± 0.053.

What about the Kp at 120 h ([2]; male, Sprague Dawley (Crl:CD(SD)), rat, liver and plasma, 1 mg/kg/day, PFHxSA 1 mg/kg/day oral 5 days, male, individual rats, read-out: Male Partition Coefficient (Kp), liver-plasma) of the same compound?
Its Kp at 120 h is 0.166.

And the Kp at 120 h ([2]; male, Sprague Dawley (Crl:CD(SD)), rat, liver and plasma, 3 mg/kg/day, PFHxSA 3 mg/kg/day oral 5 days, male rats, mean ± SD, read-out: PFHxSA liver-to-plasma Kp, Male Rats)?
The Kp at 120 h was 0.186 ± 0.058.

And the Kp at 120 h ([2]; male, Sprague Dawley (Crl:CD(SD)), rat, liver and plasma, 10 mg/kg/day, PFHxSA 10 mg/kg/day oral 5 days, male rats, mean ± SD, read-out: PFHxSA liver-to-plasma Kp, Male Rats)?
Its Kp at 120 h is 0.189 ± 0.041.

What about the Kp at 120 h ([2]; male, Sprague Dawley (Crl:CD(SD)), rat, liver and plasma, 10 mg/kg/day, PFHxSA 10 mg/kg/day oral 5 days, male, individual rats, read-out: Male Partition Coefficient (Kp), liver-plasma) of the same compound?
The Kp at 120 h was 0.191.

What about the Kp at 120 h ([2]; male, Sprague Dawley (Crl:CD(SD)), rat, liver and plasma, 30 mg/kg/day, PFHxSA 30 mg/kg/day oral 5 days, male rats, mean ± SD, read-out: PFHxSA liver-to-plasma Kp, Male Rats) of the same compound?
Its Kp at 120 h is 0.144 ± 0.0075.

And the Kp at 120 h ([2]; male, Sprague Dawley (Crl:CD(SD)), rat, liver and plasma, 30 mg/kg/day, PFHxSA 30 mg/kg/day oral 5 days, male, individual rats, read-out: Male Partition Coefficient (Kp), liver-plasma)?
The Kp at 120 h was 0.156.

What about the Kp at 120 h ([2]; male, Sprague Dawley (Crl:CD(SD)), rat, liver and plasma, 100 mg/kg/day, PFHxSA 100 mg/kg/day oral 5 days, male rats, mean ± SD, read-out: PFHxSA liver-to-plasma Kp, Male Rats) of the same compound?
The Kp at 120 h was 0.403 ± 0.23.

What about the Kp at 120 h ([2]; male, Sprague Dawley (Crl:CD(SD)), rat, liver/plasma, 0.1 mg/kg/day, PFHxSA 0.1 mg/kg/day oral 5 days, male rats, mean ± SD, read-out: PFHxSA liver-to-plasma Kp, Male Rats) of the same compound?
Its Kp at 120 h is 0.604 ± 0.22.

And the Kp at 120 h ([2]; male, Sprague Dawley (Crl:CD(SD)), rat, liver/plasma, 0.3 mg/kg/day, PFHxSA 0.3 mg/kg/day oral 5 days, male rats, mean ± SD, read-out: PFHxSA liver-to-plasma Kp, Male Rats)?
The Kp at 120 h was 0.256 ± 0.088.

What about the “Increase in mRNAs of CYP450 isoforms 3A2, 4A1, and 2J4” value ([3]; rat liver) of the same compound?
The value was at least 2 fold.

And the “Lowest observed transcriptional effect level, CYP450 isoforms 3A2, 4A1, and 2J4” value [3]?
The value was 30 mg/kg/day.
